Tests used:
MOLT-3 cells [1] = assay: Cell growth inhibition, [3H]thymidine proliferation assay; type: cell-based; settings: Homo sapiens, 72 hours incubation, 38C2 or PGA at 1 μM where stated
Experimental: (§1) Cell lines: Human T-lineage acute lymphoblastic leukemia (ALL) cell line MOLT-3, and human erythroleukemia cell line HEL were purchased from American Type Culture Collection (ATCC, Rockville, Md.) and maintained in RPMI 1640 medium (Hyclone, Logan, Utah) supplemented with 10% FCS, 1.5 gram/liter sodium bicarbonate, 10 mM HEPES, 1 mM sodium pyruvate, and antibiotics (Gibco, Grand Island, N.Y.).
(§2) Cytotoxicity assays: Stock solutions of 2 mM doxorubicin (Dox) and dual-triggered prodrug (pro-Dox, Compound 16) in dimethylformamide were stored at 4° C. For cell-growth inhibition assays, 100 μM solutions of the drug or prodrug in PBS were freshly prepared from the 2 mM stock solutions.
(§3) Cells were harvested from culture dishes, washed once with HBSS, re-suspended in cell culture medium, and plated in 96-well tissue culture plate at a density of 5×10^3/well in 100 μl media. Drugs were further diluted in cell culture medium to yield final concentration of 50 pM-1 μM and added to the cells. […] The cells were frozen at −80° C. overnight and subsequently processed on a multichannel automated cell harvester (Cambridge Technology, Cambridge, Mass.) and counted in a liquid scintillation beta counter (Beckman Coulter). […] The inhibition in experiment E was calculated according to the following formula: (background−E)/background×100%. […]

HEL cells = assay: as above; type: cell-based; settings: Homo sapiens, read-out: IC50, HEL cells, 72 hours incubation, 38C2 or PGA at 1 μM where stated, read-out: IC50, Hell cells
Experimental: as §1, §2, §3

MOLT-3 cells [2] = assay: Apoptosis by annexin V/7-AAD flow cytometry; type: cell-based, human; settings: 25 nM drug or prodrug, 1 μM 38C2 or PGA where stated
Experimental: as §1
Assessment of apoptosis: Cells were stained with Phycoerythrin (PE)-conjugated annexin V and 7-AAD using the annexin V kit (BD PharMingen, San Diego, Calif.) according to the manufacture's protocol. In brief, cells were collected at different time points, washed once with EDTA-free PBS, and then incubated for 15 minutes with a mixture containing annexin V-PE and 7-AAD in binding buffer (10 mM HEPES (pH 7.4), 140 mM NaCl, and 2.5 mM CaCl2). Thereafter, the supernatants were removed, and 400 μl of binding buffer was added to each sample. The fluorescence was analyzed by flow cytometry (FACScan, Becton Dickinson, San Jose, Calif.) for the presence of viable (AV^− and 7-AAD^−), early apoptotic (AV^+, 7-AAD^−), and late apoptotic/secondary necrotic (AV^+ and 7-AAD^+) cells.
MOLT-3cells were incubated in the presence of Compound 16 and PGA or Ab38C2, as described in the Methods section hereinabove, for various time periods. […]

## COc1cccc2c1C(=O)c1c(O)c3c(c(O)c1C2=O)C[C@@](O)(C(=O)CO)C[C@@H]3O[C@H]1C[C@H](N)[C@H](O)[C@H](C)O1 [Dox, doxorubicin]
MOLT-3 cells [1]
  IC50: 0.003 µM
HEL cells
  IC50: 0.02 µM
MOLT-3 cells [2]
  incubation time after which the majority of cells were in early or late apoptotic state: 24 h
MOLT-3 cells [2]; up to 72 hours
  induction of apoptosis: undergo apoptosis

From US20060269480A1, “Multi-triggered self-immolative dendritic compounds” (Ramot At Tel Aviv University Ltd., priority 2005, published 2006)
